Measured values taken from ChEMBL document CHEMBL2203167, “Structural modifications of 5,6-dihydroxypyrimidines with anti-HIV activity” (Bioorg Med Chem Lett, 2012).

Assays:
[1] = Therapeutic index, ratio of CC50 for human C8166 cells to EC50 for HIV1 3B; format: cell-based; settings: read-out: Ratio CC50/EC50
[2] = test system: Human immunodeficiency virus 1; experiment: Antiviral activity against HIV1 3B infected in human C8166 cells assessed as inhibition of syncytia after 3 days; format: functional, organism-based; settings: Human immunodeficiency virus 1, 3B, C8166, 72 h
[3] = Cytotoxicity against human C8166 cells after 3 days by MTT assay; format: cell-based

Structure (SMILES) | selectivity ratio [1] | EC50 [2] | CC50 at 72 h [3]
COc1ccc(CNC(=O)Nc2nc(C(C)(C)NC(=O)OCc3ccccc3)nc(O)c2O)cc1 | 4.46 | 93.2 µM | > 500 µM
CC(C)(NC(=O)OCc1ccccc1)c1nc(O)c(O)c(C(=O)NCc2ccccc2)n1 | 128 | 0.32 µM | 41.4 µM
COc1cc(CNC(=O)c2nc(C(C)(C)NC(=O)OCc3ccccc3)nc(O)c2O)cc(OC)c1OC | 8.89 | 12.3 µM | 110 µM
CC(C)(NC(=O)OCc1ccccc1)c1nc(O)c(O)c(C(=O)NCCc2ccc(F)cc2)n1 | 4.11 | 8.61 µM | 35.4 µM
COCCNC(=O)Nc1nc(C(C)(C)NC(=O)OCc2ccccc2)nc(O)c1O | > 9.13 | 52.3 µM | > 500 µM
CC(C)(NC(=O)OCc1ccccc1)c1nc(O)c(O)c(C(=O)NCCc2cc3ccccc3[nH]2)n1 | 4.76 | 7.12 µM | 34.1 µM
CC(C)(NC(=O)OCc1ccccc1)c1nc(O)c(O)c(NC(=O)NCc2ccc(F)cc2)n1 | 8.21 | 9.87 µM | 81.1 µM
CC(C)(NC(=O)OCc1ccccc1)c1nc(O)c(O)c(C(=O)NCC2CC2)n1 | 8.33 | 24.4 µM | 204 µM
Cc1ccc(CNC(=O)c2nc(C(C)(C)NC(=O)OCc3ccccc3)nc(O)c2O)cc1 | 383 | 0.55 µM | 234 µM
CC(C)(NC(=O)OCc1ccccc1)c1nc(O)c2oc(=O)[nH]c2n1 | > 7.83 | 74.2 µM | > 500 µM
CC(C)(NC(=O)OCc1ccccc1)c1nc(O)c(O)c(C(=O)NN)n1 | > 3.37 | 164 µM | > 500 µM
COCCNC(=O)c1nc(C(C)(C)NC(=O)OCc2ccccc2)nc(O)c1O | 13.4 | 26 µM | 348 µM
COCCCNC(=O)c1nc(C(C)(C)NC(=O)OCc2ccccc2)nc(O)c1O | 31.2 | 8.3 µM | 259 µM
CC(C)(NC(=O)OCc1ccccc1)c1nc(O)c(O)c(C(=O)NCc2ccccc2Cl)n1 | 396 | 0.14 µM | 53.9 µM
CC(C)(NC(=O)OCc1ccccc1)c1nc(O)c(O)c(C(=O)NCCc2ccccc2)n1 | 3.32 | 11.6 µM | 38.5 µM
COc1ccc(CNC(=O)c2nc(C(C)(C)NC(=O)OCc3ccccc3)nc(O)c2O)cc1 | 1090 | 0.15 µM | 164 µM
Cc1cn([C@H]2C[C@H](N=[N+]=[N-])[C@@H](CO)O2)c(=O)[nH]c1=O [ZIDOVUDINE] | 274000 | 0.019 µM | 
CC(C)(NC(=O)OCc1ccccc1)c1nc(O)c(O)c(C(=O)NCc2ccc(C(F)(F)F)cc2)n1 | 244 | 0.24 µM | 58.1 µM
CC(C)(NC(=O)OCc1ccccc1)c1nc(O)c(O)c(C(=O)N/N=C/c2ccc(F)cc2)n1 | 13.7 | 27.7 µM | 378 µM
